Test results taken from patent publication US20240002441A1, “PEPTIDES AND USES THEREOF IN MODULATION OF AMYLOID-BETA PROTEIN DEGRADING PROTEASES” (priority 2020, published 2024).

Legend:
[1] = target: T1, IDE (Homo sapiens, UniProt P14735); test: QFS assay of Aβ-degrading enzymes: IDE (Example 6); type: biochemical
T1 sequence (P14735 1-1019): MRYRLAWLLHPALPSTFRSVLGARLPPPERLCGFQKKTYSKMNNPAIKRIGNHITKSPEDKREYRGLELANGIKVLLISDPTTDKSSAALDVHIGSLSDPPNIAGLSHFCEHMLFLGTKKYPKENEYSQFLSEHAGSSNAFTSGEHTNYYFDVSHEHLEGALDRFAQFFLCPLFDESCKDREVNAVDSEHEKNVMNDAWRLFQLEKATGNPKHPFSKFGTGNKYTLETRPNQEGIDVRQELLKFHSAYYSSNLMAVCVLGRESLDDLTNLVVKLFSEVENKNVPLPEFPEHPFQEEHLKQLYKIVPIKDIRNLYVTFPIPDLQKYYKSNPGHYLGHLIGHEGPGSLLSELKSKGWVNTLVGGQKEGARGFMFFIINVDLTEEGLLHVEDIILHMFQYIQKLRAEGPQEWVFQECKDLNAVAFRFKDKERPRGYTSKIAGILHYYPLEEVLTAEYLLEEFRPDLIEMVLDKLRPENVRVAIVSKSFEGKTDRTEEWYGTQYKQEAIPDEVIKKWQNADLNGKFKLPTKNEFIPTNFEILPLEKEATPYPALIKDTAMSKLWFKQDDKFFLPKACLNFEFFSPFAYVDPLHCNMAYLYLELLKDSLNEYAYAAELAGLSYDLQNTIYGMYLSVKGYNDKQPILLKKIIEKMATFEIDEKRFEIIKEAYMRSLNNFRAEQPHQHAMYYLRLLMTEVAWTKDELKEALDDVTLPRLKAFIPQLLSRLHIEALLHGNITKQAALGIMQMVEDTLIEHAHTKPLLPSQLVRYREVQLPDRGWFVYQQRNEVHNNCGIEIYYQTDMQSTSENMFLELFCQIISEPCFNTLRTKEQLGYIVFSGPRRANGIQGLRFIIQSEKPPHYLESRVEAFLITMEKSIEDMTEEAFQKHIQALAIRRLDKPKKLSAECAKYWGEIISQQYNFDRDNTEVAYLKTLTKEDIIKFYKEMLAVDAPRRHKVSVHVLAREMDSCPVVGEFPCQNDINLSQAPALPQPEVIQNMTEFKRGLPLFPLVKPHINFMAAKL
Procedure: (§1) Plate reader-based enzyme assays were performed using a quenched fluorescent substrate (QFS) in a 96-well format using a SpectraMAX M4 Microplate reader (Molecular Devices). The increase in fluorescence following addition of QFS (40 μM) was taken as evidence of enzyme activity. Fluorescence was monitored over 2 h at 37° C. using κEx=320 nm and λEm=405 nm. Assays were conducted in black 96-well plates. Specific enzyme activity was expressed as a rate of substrate cleavage calculated using a standard curve of 7-methoxy-coumarin-4-acetic acid.
(§2) In all plate reader-based enzyme assays using QFS, the reaction rate (μmol of substrate cleaved/min) was calculated using linear regression analysis (GraphPad Prism software version 8.01). The reaction rates calculated were used to generate the enzyme kinetic parameters Vmax and Km through non-linear regression analysis (GraphPad Prism software, version 8.01; Michaelis-Menten equation). Where indicated, enzyme activity in the presence of peptide was expressed as a % of the enzyme alone. Data were expressed as mean±SEM and statistical significance was determined using t-tests or one-way ANOVAs followed by Tukey's post-hoc test. P<0.05 was considered as statistically significant. In all assays conducted using 96-well plates, the reaction mixtures in each well were considered an independent experiment.
SEQ ID NO:2 was assessed in a QFS assay against enzymes NEP, ECE1, ECE2, ACE1, ACE2, IDE and MMP-2 using the method in Example 2 and the following procedure. NEP, ACE1, ECE2 (0.05 ng/μL), ACE2, IDE (0.10 ng/μL), and ECE1 (6.4 ng/μL) were incubated with SEQ ID NO:2 (0.9-26 μM) or scrambled control (9 μM) for 1 h at 37° C. Prior to use, MMP2 (0.50 ng/μL) was activated using p-aminophenylmercuric acetate to a final concentration of 100 μM for 1 h at 37° C. Following activation, MMP2 was incubated with SEQ ID NO:2 for 1 h at 37° C. before adding the appropriate QFS.

[2] = target: T2, MMP-2 (Homo sapiens, UniProt P08253); test: QFS assay of Aβ-degrading enzymes: MMP-2 (Example 6); type: biochemical; settings: MMP2 0.50 ng/μL activated with p-aminophenylmercuric acetate
T2 construct: purchased Sigma Aldrich SRP6270-10UG
T2 sequence (P08253 110-660): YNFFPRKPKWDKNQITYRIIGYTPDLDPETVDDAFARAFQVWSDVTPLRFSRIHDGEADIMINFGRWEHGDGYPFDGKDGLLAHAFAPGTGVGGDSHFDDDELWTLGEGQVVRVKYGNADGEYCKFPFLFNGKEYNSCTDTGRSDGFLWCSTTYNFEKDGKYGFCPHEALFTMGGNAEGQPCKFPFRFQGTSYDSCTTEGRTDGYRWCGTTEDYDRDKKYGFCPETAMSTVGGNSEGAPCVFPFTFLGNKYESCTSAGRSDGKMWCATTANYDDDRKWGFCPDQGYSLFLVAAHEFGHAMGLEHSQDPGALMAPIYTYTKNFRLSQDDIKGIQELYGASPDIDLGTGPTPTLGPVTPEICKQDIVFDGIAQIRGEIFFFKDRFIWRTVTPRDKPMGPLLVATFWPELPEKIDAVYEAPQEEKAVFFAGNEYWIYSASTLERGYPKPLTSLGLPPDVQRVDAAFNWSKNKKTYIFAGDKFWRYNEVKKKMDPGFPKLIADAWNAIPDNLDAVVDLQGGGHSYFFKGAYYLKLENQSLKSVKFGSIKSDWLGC
Procedure: as §1
as §2, with “In all assays conducted using 96-well plates, the reaction mixtures in each well were considered an independent experiment.” left out
SEQ ID NO:2 was assessed in a QFS assay against enzymes NEP, ECE1, ECE2, ACE1, ACE2, IDE and MMP-2 using the method in Example 2 and the following procedure. […]

For “H-SLFELGKMIL-NH2 [SEQ ID NO:2, H2N-SLFELGKMIL-NH2]”, the “IDE activity compared with respective enzyme alone” value ([1]; peptide 2 μM (FIG. 2c)) was “did not increase”, the “IDE activity compared with respective enzyme alone” value ([1]; peptide 9 μM, significantly less compared with ACE2 and NEP) was “significantly higher” and the “IDE activity, concentration dependence” value ([1]; peptide 0.9-26 μM) was “increased the activity”. The “activity of MMP-2 in the presence of peptide” value [2] was 0.7±0.2 μmol of substrate cleaved and the “effect on the activity of MMP-2” value [2] was “did not affect”.
